Results reported in US4868203A, “Bacterial substance and pharmaceutical composition thereof” (Kabushikikaisha Ueno Seiyaku Oyo Kenkyujo, priority 1986, dated 1989).
≈ marks a conversion by molar mass, not a printed value.

Key:
[1] = Storage life of steamed Chinese noodles (Test Example 5)
Procedure: After kneading for 10 minutes. the product was rolled and cut with cutting edge (#10) to give noodles. The resulting noodles were steamed at the temperature higher than 98° C. for 6 minutes, washed with water, packed in polyethylene packages (each weighing 40 g) and heated at 85° C. for 30 minutes. The obtained packages containing Chinese noodles (10 bags/group) were maintained at 30° C. and the change in appearance with time was observed and preservation effect was evaluated according to the following evaluation scale. The values shown in the following Table are averaged evaluation levels of degeneration.

[2] = Absorbance by oral administration, absorption and secretion in yellowtail (Test Example 10); format: in vivo; conditions: oral 100 mg/kg
Procedure: To a cultured yellowtail, UFC-N11 was compulsorily oral-administered at the rate of 100 mg/kg per body weight of fish. The tissue samples were collected 3, 8, and 24 hours later respective in order to determine the concentrations in the tissues.

[3] = system: Pseudomonas solanacearum NIAES 1418; format: cell-based; conditions: Pseudomonas solanacearum NIAES 1418 (wilt of solanum)
[4] = system: Pseudomonas syringae PV lachrymans NIAES 1316; assay: Evaluation of activity against the bacterial spot of cucumber (Test Example 3); format: in vivo; conditions: 50 ppm
Procedure: Cucumber(Green tokiwa) was used for the test. Potted cucumber plants (2 leaf stage) were sprayed with sufficient amount of 50 ppm solution of bacterial substance UFC-N11 (dissolved in 0.05% aqueous sodium bicarbonate), air-dried, and spray-inoculated 10^8 /ml suspension of Pseudomonas Syringae PV lachrymans NIAES 1316, cultured on Wakimoto medium for 3 days, on both sides of leaves. For the control, an experiment was carried out using a solution without the substance N11 in the same manner as described above. After inoculation, the plants were maintained at 28° C. for 24 hours and maintained in a glass house until the day of evaluation. Six days after inoculation, percentage of spots area affected on the first and second seed leaf was observed and protection value was calculated according to the following formula: [formula] The experiment was repeated using Cu(OH)2 (Kosaid) 83% wettable powder (produced by Hokko chemical Industry Co. Ltd.) as a positive reference. In this case CaCO3 (Kurefunon) (produced by Shiraishi Calcium) was added (×200) in order to reduce damage.

[5] = system: Xandomonas campestris PV oryzae H75373; format: cell-based

Compound: CC=CC=CC=CC(=O)NC(CC(=O)NC(C(=O)C1C(=O)NC(=O)C1C)C(C)C)c1ccccc1 (centres unmarked) [UFC-N11]
- Storage life ([1]; 0.1 ppm, pH of product 9.39, 30° C.): 6.0 days
- Storage life ([1]; 1.0 ppm, pH of product 9.41, 30° C.): 8.1 days
- Storage life ([1]; 10 ppm, pH of product 9.40, 30° C.): 10.0 days
- Storage life ([1]; 50 ppm, pH of product 9.38, 30° C.): 16.0 days
- Storage life ([1]; 100 ppm, pH of product 9.41, 30° C.): 20.0 days
- preservability of the heated and steamed Chinese noodles ([1]; upon addition of UFC-N11): remarkably improved
- absorption [2]: absorbed in concentrations which were equal to or in excess of the anti-bacterial activity
- Concentration in tissue, Kidney ([2]; 3 hr): 6.55 µg/g
- Concentration in tissue, Liver ([2]; 3 hr): 8.79 µg/g
- Concentration in tissue, Muscle ([2]; 3 hr): 0.96 µg/g
- Concentration in tissue, Plasma ([2]; 3 hr): 2100 ng/mL
- Concentration in tissue, Kidney ([2]; 8 hr): 4.02 µg/g
- Concentration in tissue, Liver ([2]; 8 hr): 5.14 µg/g
- Concentration in tissue, Muscle ([2]; 8 hr): 1.12 µg/g
- Concentration in tissue, Plasma ([2]; 8 hr): 1340 ng/mL
- Concentration in tissue, Kidney ([2]; 24 hr): 1.13 µg/g
- Concentration in tissue, Liver ([2]; 24 hr): 1.36 µg/g
- Concentration in tissue, Muscle ([2]; 24 hr): < 0.25 µg/g
- Concentration in tissue, Plasma ([2]; 24 hr): < 125 ng/mL
- MIC [3]: 1.56 µg/mL (≈ 3.25 µM)
- Damage ([4]; cucumber plants): Nil
- Protection ([4]; sprayed before inoculation, 6 days): 36.8
- MIC [5]: 0.05 µg/mL (≈ 0.104 µM)
